From patent publication US7008949B2, “Heterocyclic compounds which inhibit leukocyte adhesion mediated by α4 integrins” (Elan Pharmaceuticals, Inc., priority 2003, dated 2006)

Key:
[1] = Cassette dosing and serum analysis for determination of oral bioavailability; format: in vivo, rat; conditions: male SD rats, oral cassette of 6 compounds, total dose 10 mg/kg, plasma at 4, 8, 12 h
Experimental: The oral bioavailability was screened by dosing rats with a cassette, i.e. mixture of 6 compounds per dosing solution. The cassette included 5 test articles and a standard compound, for a total dose of 10 mg/kg. Each compound/test article was converted to the sodium salt with equimolar 1 N NaOH and dissolved in water at 2 mg/mL. The cassette was prepared by mixing equal volumes of each of the six solutions. The cassette dosing solution was mixed well and then the pH was adjusted to 7.5–9. The dosing solution was prepared the day before the study and stirred overnight at room temperature.
Male Sprague Dawley (SD) rats from Charles River Laboratories, 6–8 weeks old were used in this screen. Rats were quarantined for at least one day and had continuous access to food and water. On the night before the administration of the cassette, the rats were fasted for approximately 16 h.
Four SD rats were assigned in each cassette. A single dose of the dosing solution was administered orally to each rat. The dosing volume (5 mL/kg) and time were recorded and rats were fed 2 h after dosing.
Blood samples were collected via cardiac puncture at the following time points: 4 h, 8 h and 12 h. Immediately prior to blood collection, rats were anesthetized with CO2 gas within 10–20 seconds. After the 12-hour samples were collected, the rats were euthanized via CO2 asphyxiation followed by cervical dislocation.
Blood samples were kept in heparinized microtainer tubes under sub-ambient temperature (4° C.) before they were processed. Blood samples were centrifuged (10000 rpm for 5 minutes) and plasma samples were removed and stored in a −20° C. freezer until analyzed for drug levels. Drug levels in the plasma were analyzed using the following protocol for direct plasma precipitation.
The in vivo plasma samples were prepared in a 1.5 mL 96-well plate, by adding, in order, 100 μL of the test plasma, 150 μL of methanol, followed by vortexing for 10–20 seconds. 150 μL of 0.05 ng/μL of an Internal Standard in acetonitrile were added and vortexed for 30 seconds.
The standard curve samples were prepared in a 1.5 mL 96-well plate, by adding, in order, 100 μL of control mouse plasma, followed by 150 μL of methanol and vortexing for 10–20 seconds. 150 μL of 0.05 ng/μL of an Internal Standard in acetonitrile were added and vortexed for 30 seconds. The samples were spiked with 0–200 ng (10 concentrations) of the compound of interest in 50% methanol to obtain a standard curve range of 0.5 ng/mL–2,000 ng/mL. Again, the sample was vortexed for 30 seconds.
The samples were then spun for 20–30 minutes at 3000 rpm in an Eppendorf microfuge before 80–90% of supernatant was transferred into a clean 96-well plate. The organic solvent was then evaporated until the samples were dry (under N2 at 40° C./30–60 min (ZymarkTurbovap)).
The residue was then dissolved in […] mobile phase (50% CH3OH/0.1% TFA). LC/MS/MS was then run using a PE-Sciex API-3000 triple quadurpole mass spectrometer (SN0749707), Perkin-Elmer, Series200auto-sampler, and shimadzu 10A pump. Acquisition was done with PE-Sciex Analyst (v1.1) and data analysis and quantification were accomplished using PE-Sciex Analyst (v1.1). A 5–50 μL sample volume was injected onto a reverse phase ThermoHypersil DASH-18 column (Keystone 2.0×20 mm, 5 μm, PN: 8823025-701) using a mobile phase of 25% CH3OH, 0.1% TFA-100% CH3OH, 0.1% TFA. The run time was about 8 minutes at a flow rate of about 300 μL/minutes.
The Area Under the Curve (AUC) was calculated using the linear trapezoidal rule from t=0 to the last sampling time tx (see Handbook of Basic Pharmacokinetics, Wolfgang A. Ritschel and Gregory L. Kearns, 5th ed, 1999). AUC^0→tx═S((Cn+Cn+1)/2))·(tn+1−tn)[(μg/mL)h]
In the case of the cassette dosing paradigm, samples at 4, 8 and 12 h post extravascular dosing, the AUC was calculated from t=0 to t=12 h.

α4β1 Integrin = molecular target: T1, α4β1 Integrin (Homo sapiens, UniProt P05556+P13612); test: α4β1 Integrin Adhesion Assay: Jurkat cell adhesion to human plasma fibronectin; format: cell-based; conditions: Jurkat cells
T1 construct: endogenous in cells; host or cells: Jurkat cells
T1 sequence (P13612 34-1032): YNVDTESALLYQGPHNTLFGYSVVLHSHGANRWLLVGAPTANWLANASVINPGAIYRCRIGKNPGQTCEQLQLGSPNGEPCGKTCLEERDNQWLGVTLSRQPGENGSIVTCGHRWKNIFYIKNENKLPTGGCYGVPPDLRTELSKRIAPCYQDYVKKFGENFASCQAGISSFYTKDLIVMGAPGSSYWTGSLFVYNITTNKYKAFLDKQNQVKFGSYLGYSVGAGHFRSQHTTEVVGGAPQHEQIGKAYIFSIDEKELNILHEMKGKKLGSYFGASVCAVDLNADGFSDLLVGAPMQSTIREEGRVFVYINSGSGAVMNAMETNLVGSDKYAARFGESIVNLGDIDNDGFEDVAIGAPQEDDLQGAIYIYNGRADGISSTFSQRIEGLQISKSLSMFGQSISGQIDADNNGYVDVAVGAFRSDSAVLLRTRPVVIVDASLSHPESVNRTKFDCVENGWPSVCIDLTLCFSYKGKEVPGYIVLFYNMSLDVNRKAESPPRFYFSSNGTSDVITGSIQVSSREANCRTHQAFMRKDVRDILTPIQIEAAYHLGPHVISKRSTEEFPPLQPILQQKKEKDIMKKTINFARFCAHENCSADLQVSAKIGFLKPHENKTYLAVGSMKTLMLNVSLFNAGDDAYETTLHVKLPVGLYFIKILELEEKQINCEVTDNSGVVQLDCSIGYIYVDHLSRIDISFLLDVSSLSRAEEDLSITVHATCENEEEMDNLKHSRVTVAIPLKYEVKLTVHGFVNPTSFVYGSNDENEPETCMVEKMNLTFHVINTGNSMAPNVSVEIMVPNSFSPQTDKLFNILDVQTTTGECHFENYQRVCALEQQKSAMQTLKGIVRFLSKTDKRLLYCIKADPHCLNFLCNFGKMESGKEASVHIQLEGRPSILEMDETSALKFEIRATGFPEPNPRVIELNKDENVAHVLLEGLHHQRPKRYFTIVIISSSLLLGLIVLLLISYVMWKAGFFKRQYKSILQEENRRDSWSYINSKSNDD
T1 sequence (P05556 21-798): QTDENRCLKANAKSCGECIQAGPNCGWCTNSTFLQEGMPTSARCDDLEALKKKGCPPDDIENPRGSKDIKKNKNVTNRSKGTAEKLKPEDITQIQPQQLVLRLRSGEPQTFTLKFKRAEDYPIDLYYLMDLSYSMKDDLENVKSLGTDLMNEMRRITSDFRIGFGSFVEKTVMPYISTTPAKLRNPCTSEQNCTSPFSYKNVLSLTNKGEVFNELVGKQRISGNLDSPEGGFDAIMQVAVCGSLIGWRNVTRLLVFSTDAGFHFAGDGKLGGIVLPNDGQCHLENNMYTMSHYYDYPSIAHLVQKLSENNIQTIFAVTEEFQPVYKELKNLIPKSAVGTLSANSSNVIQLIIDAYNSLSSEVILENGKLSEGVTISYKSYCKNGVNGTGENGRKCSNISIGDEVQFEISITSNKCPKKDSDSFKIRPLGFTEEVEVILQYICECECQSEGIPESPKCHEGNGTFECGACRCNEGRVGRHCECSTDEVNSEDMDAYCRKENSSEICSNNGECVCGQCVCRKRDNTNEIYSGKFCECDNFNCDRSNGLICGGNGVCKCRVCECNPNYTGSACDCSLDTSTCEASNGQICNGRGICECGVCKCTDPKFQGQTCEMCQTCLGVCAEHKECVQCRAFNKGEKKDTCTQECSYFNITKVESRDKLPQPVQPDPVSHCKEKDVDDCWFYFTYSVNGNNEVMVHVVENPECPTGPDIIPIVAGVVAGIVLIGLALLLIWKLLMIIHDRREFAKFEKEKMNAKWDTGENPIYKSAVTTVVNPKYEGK
Experimental: 96 well plates (Costar 3590 EIA plates) were coated with human fibronectin (Gibco/BRL, cat #33016-023) at a concentration of 10 μg/mL overnight at 4° C. The plates were then blocked with a solution of bovine serum albumin (BSA; 0.3%) in saline. Jurkat™ cells (maintained in log phase growth) were labeled with Calcein AM according to the manufacturer's instructions, and suspended at a concentration of 2×10^6 cells/mL in Hepes/Saline/BSA. The cells were then exposed to test and control compounds for 30 minutes at room temperature before transfer to individual wells of the fibronectin coated plate. Adhesion was allowed to occur for 35 minutes at 37° C. The wells were then washed by gentle aspiration and pipetting with fresh saline. Fluorescence associated with the remaining adherent cells was quantified using a fluorescence plate reader at EX 485/EM 530.
Cell cultures were prepared by first splitting the stationary phase Jurkat™ cells at 1:10 on day one, and 1:2 on day two to perform assay on day 3. The cells split 1:10 on day one were split 1:4 on day 3 for a day 4 assay.
The assay plates were prepared by first making a working solution of Gibco/BRL Human Fibronectin (cat # 33016-023) in PBS++, at 10 μg/mL.
A Costar 3590 EIA plate was then coated with 50 μL/well for 2 hours at room temperature (thought it can also be left overnight at 4° C.). Finally the plate was asperated and blocked with Hepes/Saline Buffer, 100 μL/well, for 1 hour at RT followed by washing three times with 150 μL of PBS++.
Compound dilutions were accomplished by preparing 1:3 serial dilutions of compounds as follows. For each plate (4 compounds/plate) 600 μL were added to 4 Bio-Rad Titertubes in a Titertube rack. Enough compound was added to each appropriate tube to give a 2× concentration using methods well known in the art. Using Falcon Flexiplates, 100 μL of Hepes/Saline buffer or human serum were added to rows B through G. A multi-channel pipetter set to 180 μL was used to with four tips spaced evenly the pipetter. Each set of four tubes was mixed 5 times and 180 μL of 2× compound was transferred to the first column of each compound dilution in Row B, leaving Row A empty. 180 μL were added to the other wells in Row A. Serial dilutions were performed down the plate by transferring 50 μL to the next dilution and mixing 5 times, changing tips each time after mixing. Dilutions were stopped at Row F. Row G had no compound present.
A 20 μg/mL solution in Hepes/Saline buffer or human serum, of 21/6 antibody was the positive control and was set aside in a reagent trough to add to cell suspension plate.
The cell staining was accomplished by first harvesting the log-phase Jurkat™ cells by centrifugation in 50 mL tubes (1100 rpm for 5 minutes). The cells were resuspended in 50 mL PBS++, spun, and resuspend in 20 mL PBS++. The cells were stained by adding 20 μL of Calcein AM for 30 minutes R.T. The volume was brought to 50 mL with Hepes/Saline buffer and the cells were counted, spun, and resuspend to 2×10^6 cells/mL in Hepes/Saline buffer or human serum.
The compounds were incubated using the following procedure. In a new flexiplate, 65 μL of stained cells were added to Rows B through H. Then 65 μL of 2× compounds were added to the appropriate rows following the plate setup and mixed 3×. 65 μL of 2×-21/6 antibody were added to Row H and mixed 3×. Finally the plate was incubated at room temperature for 30 minutes.
Fibronectin adhesion was measured using a fluorescent plate reader at EX 485/EM 530 after the following work up procedure. After incubation, the cells were mixed 3× and 100 μL were transferred to the Fibronectin coated plates and incubated at 37° C. for about 35 minutes. Each plate was washed, row by row, by gently pipetting 100 μL of R.T. PBS++ down the sides of the wells and turning the plate 90 degrees to aspirate. This procedure was repeated for a total of 3 washes. Each well was filled with 100 μL after washing by pipetting down the side of the well. […]

[2] = IC50, Cell Adhesion to Human Plasma Fibronectin (With Human Serum), with human serum
[3] = IC50, Cell Adhesion to Human Plasma Fibronectin (Without the Human Serum), without human serum

## C#CCN(c1cnc(N(CC)CC)nc1N[C@@H](Cc1ccc(OC(=O)N(C)C)cc1)C(=O)O)S(=O)(=O)c1ccc(F)cc1 [Example 27]
[1]
  AUC (average AUC 0→12 h): 1.6258 (μg/mL)h
α4β1 Integrin; [2]
  IC50: 106 nM
α4β1 Integrin; [3]
  IC50: 1.63 nM

## C#CCN(c1cnc(N(CC)CC)nc1NC(Cc1ccc(OC(=O)N(C)C)cc1)C(=O)O)S(=O)(=O)c1ccc(F)cc1F (stereo not drawn) [Example 28, 2-{2-Diethylamino-5-[(2,4-difluorobenzenesulfonyl)propargylamino]pyrimidin-4-ylamino}-3-(4-dimethylcarbamoyloxyphenyl)propionic acid]
[1]
  AUC (average AUC 0→12 h): 0.7968 (μg/mL)h
α4β1 Integrin; [2]
  IC50: 72.9 nM
α4β1 Integrin; [3]
  IC50: 6.34 nM

## CCN(CC)c1ncc(N(CC(F)(F)F)S(=O)(=O)c2ccc(F)cc2)c(NC(Cc2ccc(OC(=O)N(C)C)cc2)C(=O)O)n1 (stereo not drawn) [Example 29, 2-{2-diethylamino-5-[(4-fluorobenzenesulfonyl)-(2,2,2-trifluoroethyl)amino]pyrimidin-4-ylamino}-3-(4-dimethylcarbamoyloxyphenyl)propionic acid]
[1]
  AUC (average AUC 0→12 h): 0.2941 (μg/mL)h
α4β1 Integrin; [2]
  IC50: 53 nM
α4β1 Integrin; [3]
  IC50: 3.35 nM
